Source: patent US20250179051A1, “PYRIMIDINLY-OXY-QUINOLINE BASED HERBICIDAL COMPOUNDS” (SYNGENTA CROP PROTECTION AG, priority 2022, published 2025)

Key:
Type in all cases: in vivo
Conditions in all cases: 250 g/ha, evaluated after 13 days, five-point scale
[1] = tested on: Amaranthus retoflexus (AMARE); experiment: Post-emergence herbicide glasshouse test
Outline: (§1)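 Glasshouse spray test at 250 g/ha, pre- or post-emergence (1 or 8 days after sowing). Percent injury scored 1–5 after 13 days.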

[2] = tested on: Ipomoea hederacea (IPOHE); experiment: Post-emergence herbicide glasshouse test
Outline: as §1

[3] = tested on: Echinochloa crus-galli (ECHCG); experiment: Post-emergence herbicide glasshouse test
Outline: as §1

[4] = tested on: Amaranthus palmeri (AMAPA); experiment: Post-emergence herbicide glasshouse test
Outline: as §1

[5] = tested on: Setaria faberi (SETFA); experiment: Post-emergence herbicide glasshouse test
Outline: as §1

[6] = tested on: Amaranthus retoflexus (AMARE); experiment: Pre-emergence herbicide glasshouse test
Outline: as §1

[7] = tested on: Ipomoea hederacea (IPOHE); experiment: Pre-emergence herbicide glasshouse test
Outline: as §1

[8] = tested on: Echinochloa crus-galli (ECHCG); experiment: Pre-emergence herbicide glasshouse test
Outline: as §1

[9] = tested on: Amaranthus palmeri (AMAPA); experiment: Pre-emergence herbicide glasshouse test
Outline: as §1

[10] = tested on: Setaria faberi (SETFA); experiment: Pre-emergence herbicide glasshouse test
Outline: as §1

FC(F)(F)CCC(Br)c1nc(C(F)(F)F)nc2cccc(Oc3ncc(Cl)cn3)c12 (stereo not shown) [Compound 1.071]
percentage damage caused to the plant, AMARE [1]: 5 (5=81-100%)
percentage damage caused to the plant, IPOHE [2]: 3 (3=41-60%)
percentage damage caused to the plant, ECHCG [3]: 5 (5=81-100%)
percentage damage caused to the plant, AMAPA [4]: 5 (5=81-100%)
percentage damage caused to the plant, SETFA [5]: 4 (4=61-80%)
percentage damage caused to the plant, AMARE [6]: 5 (5=81-100%)
percentage damage caused to the plant, IPOHE [7]: 1 (1=0-20%)
percentage damage caused to the plant, ECHCG [8]: 5 (5=81-100%)
percentage damage caused to the plant, AMAPA [9]: 5 (5=81-100%)
percentage damage caused to the plant, SETFA [10]: 5 (5=81-100%)
